According to patent US20130059879A1, “Small Molecule Inhibitors of PFKFB3 and Glycolytic Flux and Their Methods of Use as Anti-Cancer Therapeutics” (UNIVERSITY OF LOUISVILLE RESEARCH FOUNDATION, INC., priority 2010, published 2013):
In brackets after ≈: the same amount, converted by molar mass.

tested on: U937; test: Cancer cell proliferation, Alamar Blue assay, 72 hours; assay type: cell-based; conditions: Homo sapiens, U-937
Description: (§1) The ability of the compounds described herein to kill or inhibit the proliferation of cancer cells was measured using either the MTT assay, or the Alamar Blue assay, or the Cell Titer Glow® assay using 48 or 72 hours exposure. […] The procedures are briefly described below. Cells of the desired tumor cell line were plated at 2×10^5 cells/ml in 96 well plates. Twice the indicated concentrations of the compounds of the invention were added to cells the following day in an equal volume of media. 72 hours later, cells were lysed and subjected to ATP determination using the CellTiter Glo-Luminescent Cell Viability Assay kit (Promega, Madison, Wis.). Experiments were done in triplicate. When using the MTT assay or the Alamar blue assay, the experimental conditions are essentially similar; at the end of the incubation period, 20 microliters of the MTT solution is added per well and the samples are incubated for an additional four hours, rinsed, and the absorbance at 570 nm measured. […] Table 2 lists the IC50 values for the compounds of the invention in several cell lines including Jurkat, Calu-6, NCI-H82, U937, HCT-116, and MDA-MB-231 cancer cell lines.

IC50 [nM] | SMILES
205 | COc1cc(C(=O)c2cc3c(ccc4ccccc43)[nH]2)ccc1O [ACT-PFK-108, (3H-Benzo[e]indol-2-yl)-(4-hydroxy-3-methoxylthenyl)-methanone]

tested on: Jurkat; test: as above; assay type: cell-based; conditions: Homo sapiens, Jurkat
Description: as §1

IC50 [nM] | SMILES
545 | COc1cc(C(=O)c2cc3c(ccc4ccccc43)[nH]2)ccc1O [ACT-PFK-108, (3H-Benzo[e]indol-2-yl)-(4-hydroxy-3-methoxylthenyl)-methanone]

tested on: HCT-116; test: as above; assay type: cell-based; conditions: Homo sapiens, HCT-116
Description: as §1

IC50 [nM] | SMILES
475 | COc1cc(C(=O)c2cc3c(ccc4ccccc43)[nH]2)ccc1O [ACT-PFK-108, (3H-Benzo[e]indol-2-yl)-(4-hydroxy-3-methoxylthenyl)-methanone]

tested on: MDA-MB-231; test: as above; assay type: cell-based; conditions: Homo sapiens
Description: as §1

IC50 [nM] | SMILES
90 | COc1cc(C(=O)c2cc3c(ccc4ccccc43)[nH]2)ccc1O [ACT-PFK-108, (3H-Benzo[e]indol-2-yl)-(4-hydroxy-3-methoxylthenyl)-methanone]

tested on: NCI-H82; test: as above; assay type: cell-based; conditions: Homo sapiens, NCI-H82, read-out: IC50 NCl-H82
Description: as §1

IC50 [nM] | SMILES
360 | COc1cc(C(=O)c2cc3c(ccc4ccccc43)[nH]2)ccc1O [ACT-PFK-108, (3H-Benzo[e]indol-2-yl)-(4-hydroxy-3-methoxylthenyl)-methanone]

tested on: Calu-6; test: as above; assay type: cell-based; conditions: Homo sapiens, Calu-6
Description: as §1

IC50 [nM] | SMILES
360 | COc1cc(C(=O)c2cc3c(ccc4ccccc43)[nH]2)ccc1O [ACT-PFK-108, (3H-Benzo[e]indol-2-yl)-(4-hydroxy-3-methoxylthenyl)-methanone]

tested on: not listed separately; test: Microsomal stability in human liver microsomes; assay type: in vitro ADME; conditions: 0 min
Description: Microsomal stability in vitro in different biologic media (liver microsomes, S9 fraction, hepatocytes) and species is ascertained to evaluate the rate at which a compound undergoes metabolism in the experimental in vitro conditions. Results for some compounds of the invention after a 60 minutes incubation period in human liver microsomes are shown in the Table 6 below. […] Experimental conditions are briefly described here: the stability in human liver microsomes of several compounds was done over […] at 37° C. using pooled mixed gender human liver microsomes. These liver microsomes were prepared at 1.0 mg/ml of microsomal protein in a 100 mM potassium phosphate pH 7.4 buffer with 1 mM NADPH. The media was incubated at 37° C. with the compound in solution in DMSO. The concentration of the compound was followed by LC/MS-MS as a function of time. Samples were assayed at t=0, 15, 30, and 60 minutes. Testosterone was used as a positive control. The same experiment was performed with mouse, rat or dog liver microsomes instead of human liver microsomes.

HLM, Mean metabolized (%) | SMILES
0.0 | COc1cc(C(=O)c2cc3c(ccc4ccccc43)[nH]2)ccc1O [ACT-PFK-108, (3H-Benzo[e]indol-2-yl)-(4-hydroxy-3-methoxylthenyl)-methanone]

same assay, conditions: 60 min incubation, 1.0 mg/ml microsomal protein, 1 mM NADPH, 37° C.

HLM, Mean metabolized (%) | SMILES
73.3 | COc1cc(C(=O)c2cc3c(ccc4ccccc43)[nH]2)ccc1O [ACT-PFK-108, (3H-Benzo[e]indol-2-yl)-(4-hydroxy-3-methoxylthenyl)-methanone]

tested on: Jurkat cells; test: Inhibition of 14C-2-deoxyglucose uptake; assay type: cell-based; conditions: Homo sapiens, 3 hours
Description: Inhibition of PFKFB3 results in inhibiting glycolysis. Several feedback or feedforward activation and inhibition mechanisms exist so that, by a feedback mechanism, inhibiting the activity of PFKFB3 may inhibit glucose uptake by cells. An assay was developed to determine if there was inhibition of glucose uptake following exposure to the compounds on the invention. Briefly, Jurkat cells were plated at 1×10^5/mL in RPM′ 1640 supplemented with 10% fetal bovine serum and 50 μg/mL gentamicin sulfate. Cells were immediately treated with vehicle or 5 μmol/L of the compound of the invention for 3 hours and subsequently placed in glucose-free RPMI 1640 for 30 min. ^14C-2-deoxyglucose (0.25 μCi/mL; Perkin Elmer) was added for an additional 60 min and cells were then washed three with ice-cold RPMI 1640 containing no glucose. Cell lysates were collected in 500 μL of 0.1% SDS, and scintillation counts (counts/min) were measured on 400 μL of lysate. Counts were normalized to protein concentration.

SMILES | inhibition at 5 µM [%]
COc1cc(C(=O)c2cc3c(ccc4ccccc43)[nH]2)ccc1O [ACT-PFK-108, (3H-Benzo[e]indol-2-yl)-(4-hydroxy-3-methoxylthenyl)-methanone] | 2

tested on: not listed separately; test: Solubility in solvents and excipients, 1 hour at room temperature, HPLC; assay type: physicochemical; conditions: aqueous with cosolvent or surfactant or cyclodextrin, thermodynamic from solid; Cre:EtOH:Saline 5:5:90 mixture, 1 hour at room temperature; read-out: Solubility Cre:EtOH:Saline
Description: Chemical properties of the compounds of the invention were investigated, including the solubility in several solvents and pharmaceutically accepted excipients. […] Briefly, selected compounds of the invention are dissolved in a small volume of the solvents/excipients of interest at room temperature over 1 hour in typically 1 ml and the concentration is measured by HPLC after filtration.

solubility at 1 h [mg/mL] | SMILES
4.8 (≈ 15.1 mM) | COc1cc(C(=O)c2cc3c(ccc4ccccc43)[nH]2)ccc1O [ACT-PFK-108, (3H-Benzo[e]indol-2-yl)-(4-hydroxy-3-methoxylthenyl)-methanone]

same assay, conditions: ethanol, organic solvent or mixture, thermodynamic from solid; EtOH, 1 hour at room temperature; read-out: Solubility EtOH

solubility at 1 h [mg/mL] | SMILES
9.9 (≈ 31.2 mM) | COc1cc(C(=O)c2cc3c(ccc4ccccc43)[nH]2)ccc1O [ACT-PFK-108, (3H-Benzo[e]indol-2-yl)-(4-hydroxy-3-methoxylthenyl)-methanone]

same assay, conditions: organic solvent or mixture, thermodynamic from solid; 1:1 cremophor EL-P:ethanol mixture, 1 hour at room temperature; read-out: Solubility Cre:EtOH

solubility at 1 h [mg/mL] | SMILES
78.1 (≈ 246 mM) | COc1cc(C(=O)c2cc3c(ccc4ccccc43)[nH]2)ccc1O [ACT-PFK-108, (3H-Benzo[e]indol-2-yl)-(4-hydroxy-3-methoxylthenyl)-methanone]

same assay, conditions: organic solvent or mixture, thermodynamic from solid; Acetone, 1 hour at room temperature; read-out: Solubility Acetone

solubility at 1 h [mg/mL] | SMILES
12.8 (≈ 40.3 mM) | COc1cc(C(=O)c2cc3c(ccc4ccccc43)[nH]2)ccc1O [ACT-PFK-108, (3H-Benzo[e]indol-2-yl)-(4-hydroxy-3-methoxylthenyl)-methanone]

same assay, conditions: organic solvent or mixture, thermodynamic from solid; Cremophor, 1 hour at room temperature; read-out: Solubility Cremophor

solubility at 1 h [mg/mL] | SMILES
37.6 (≈ 118 mM) | COc1cc(C(=O)c2cc3c(ccc4ccccc43)[nH]2)ccc1O [ACT-PFK-108, (3H-Benzo[e]indol-2-yl)-(4-hydroxy-3-methoxylthenyl)-methanone]

same assay, conditions: organic solvent or mixture, thermodynamic from solid; DCM, 1 hour at room temperature; read-out: Solubility DCM

solubility at 1 h [mg/mL] | SMILES
11.1 (≈ 35 mM) | COc1cc(C(=O)c2cc3c(ccc4ccccc43)[nH]2)ccc1O [ACT-PFK-108, (3H-Benzo[e]indol-2-yl)-(4-hydroxy-3-methoxylthenyl)-methanone]

same assay, conditions: organic solvent or mixture, thermodynamic from solid; Tween 80, 1 hour at room temperature; read-out: Solubility Tween 80

solubility at 1 h [mg/mL] | SMILES
16.9 (≈ 53.3 mM) | COc1cc(C(=O)c2cc3c(ccc4ccccc43)[nH]2)ccc1O [ACT-PFK-108, (3H-Benzo[e]indol-2-yl)-(4-hydroxy-3-methoxylthenyl)-methanone]

same assay, conditions: organic solvent or mixture, thermodynamic from solid; Tween80:EtOH 6:4 mixture, 1 hour at room temperature; read-out: Solubility Twee80:EtOH

solubility at 1 h [mg/mL] | SMILES
10.3 (≈ 32.5 mM) | COc1cc(C(=O)c2cc3c(ccc4ccccc43)[nH]2)ccc1O [ACT-PFK-108, (3H-Benzo[e]indol-2-yl)-(4-hydroxy-3-methoxylthenyl)-methanone]
